Assay results taken from patent US9364467B2 (Salix Pharmaceuticals, Ltd, priority 2012, dated 2016).
Converted amounts (≈) assume the structure as drawn. Where two headings read alike, the source gives them in different places.

Tested on: Enterobacteriaceae spp. strains
Experiment: In vitro activity (MIC) against Enterobacteriaceae spp. strains

CO[C@H]1/C=C/O[C@@]2(C)Oc3c(C)c(O)c4c(O)c(c5c(nc6cc(C)ccn65)c4c3C2=O)NC(=O)/C(C)=C\C=C\[C@H](C)[C@H](O)[C@@H](C)[C@@H](O)[C@@H](C)[C@H](OC(C)=O)[C@@H]1C [Rifaximin, reference compound] gave an MIC of 32 µg/mL (≈ 40.7 µM), an MIC50 of 32 µg/mL (≈ 40.7 µM) and an MIC90 of 32 µg/mL (≈ 40.7 µM). The MIC (Citrobacter freundii, C. freundii 57) was 16 µg/mL (≈ 20.4 µM), the MIC (Citrobacter freundii, C. freundii 58) was 32 µg/mL (≈ 40.7 µM) and the MIC (Citrobacter freundii, C. freundii 65) was 32 µg/mL (≈ 40.7 µM). The MIC (Citrobacter freundii, C. freundii 68) was 32 µg/mL (≈ 40.7 µM), the MIC (Citrobacter freundii, C. freundii 69) was 32 µg/mL (≈ 40.7 µM) and the MIC (Citrobacter freundii, C. freundii 1070) was 32 µg/mL (≈ 40.7 µM). It also gave an MIC (Citrobacter freundii, C. freundii 1073) of 32 µg/mL (≈ 40.7 µM), an MIC (Citrobacter freundii, C. freundii 1075) of 32 µg/mL (≈ 40.7 µM) and an MIC (Enterobacter cloacae, E. cloacae 1) of 32 µg/mL (≈ 40.7 µM). The MIC (Enterobacter cloacae, E. cloacae 3) was 32 µg/mL (≈ 40.7 µM), the MIC (Enterobacter cloacae, E. cloacae 8) was 32 µg/mL (≈ 40.7 µM) and the MIC (Enterobacter cloacae, E. cloacae 12) was 32 µg/mL (≈ 40.7 µM). The MIC (Enterobacter cloacae, E. cloacae 13) was 32 µg/mL (≈ 40.7 µM), the MIC (Enterobacter cloacae, E. cloacae 14) was 32 µg/mL (≈ 40.7 µM) and the MIC (Enterobacter cloacae, E. cloacae 16) was 32 µg/mL (≈ 40.7 µM). It also gave an MIC (Enterobacter cloacae, E. cloacae 20) of 32 µg/mL (≈ 40.7 µM), an MIC (Enterobacter cloacae, E. cloacae 321) of 32 µg/mL (≈ 40.7 µM) and an MIC (Enterobacter cloacae, E. cloacae 348) of 32 µg/mL (≈ 40.7 µM). For the same compound, the MIC (Enterobacter cloacae, E. cloacae 349) was 32 µg/mL (≈ 40.7 µM), the MIC (Enterobacter cloacae, E. cloacae 358) was 32 µg/mL (≈ 40.7 µM) and the MIC (Enterobacter cloacae, E. cloacae 367) was 32 µg/mL (≈ 40.7 µM). For the same compound, the MIC (Enterobacter cloacae, E. cloacae 369) was 32 µg/mL (≈ 40.7 µM), the “Range (MIC)” value (Enterobacteriaceae spp. strains) was 8 to 32 µg/mL and the MIC (Escherichia coli, ATCC E. Coli 25922) was 16 µg/mL (≈ 20.4 µM). The MIC (Escherichia coli, E. coli 6) was 32 µg/mL (≈ 40.7 µM), the MIC (Escherichia coli, E. coli 15) was 16 µg/mL (≈ 20.4 µM) and the MIC (Escherichia coli, E. coli 34) was 32 µg/mL (≈ 40.7 µM). For the same compound, the MIC (Escherichia coli, E. coli 37) was 8 µg/mL (≈ 10.2 µM), the MIC (Escherichia coli, E. coli 41) was 16 µg/mL (≈ 20.4 µM) and the MIC (Escherichia coli, E. coli 43) was 16 µg/mL (≈ 20.4 µM). The MIC (Escherichia coli, E. coli 44) was 16 µg/mL (≈ 20.4 µM), the MIC (Escherichia coli, E. coli 46) was 16 µg/mL (≈ 20.4 µM) and the MIC (Escherichia coli, E. coli 47) was 32 µg/mL (≈ 40.7 µM). The MIC (Escherichia coli, E. coli 48) was 32 µg/mL (≈ 40.7 µM), the MIC (Escherichia coli, E. coli 49) was 32 µg/mL (≈ 40.7 µM) and the MIC (Escherichia coli, E. coli 56) was 32 µg/mL (≈ 40.7 µM). It also gave an MIC (Escherichia coli, E. coli 62) of 32 µg/mL (≈ 40.7 µM), an MIC (Escherichia coli, E. coli 71) of 8 µg/mL (≈ 10.2 µM) and an MIC (Escherichia coli, E. coli 90) of 16 µg/mL (≈ 20.4 µM). It also gave an MIC (Escherichia coli, E. coli 92) of 32 µg/mL (≈ 40.7 µM), an MIC (Escherichia coli, E. coli 93) of 32 µg/mL (≈ 40.7 µM) and an MIC (Escherichia coli, E. coli 95) of 32 µg/mL (≈ 40.7 µM). The MIC (Escherichia coli, E. coli 96) was 8 µg/mL (≈ 10.2 µM), the MIC (Escherichia coli, E. coli 97) was 32 µg/mL (≈ 40.7 µM) and the MIC (Escherichia coli, E. coli 100) was 32 µg/mL (≈ 40.7 µM). It also gave an MIC (Escherichia coli, E. coli 102) of 16 µg/mL (≈ 20.4 µM), an MIC (Escherichia coli, E. coli 103) of 32 µg/mL (≈ 40.7 µM) and an MIC (Escherichia coli, E. coli 109) of 32 µg/mL (≈ 40.7 µM). The MIC (Escherichia coli, E. coli 110) was 32 µg/mL (≈ 40.7 µM), the MIC (Escherichia coli, E. coli 112) was 32 µg/mL (≈ 40.7 µM) and the MIC (Escherichia coli, E. coli 113) was 32 µg/mL (≈ 40.7 µM). It also gave an MIC (Escherichia coli, E. coli 117) of 16 µg/mL (≈ 20.4 µM), an MIC (Escherichia coli, E. coli 118) of 32 µg/mL (≈ 40.7 µM) and an MIC (Escherichia coli, E. coli 120) of 32 µg/mL (≈ 40.7 µM). The MIC (Escherichia coli, E. coli 140) was 32 µg/mL (≈ 40.7 µM), the MIC (Escherichia coli, E. coli 171) was 32 µg/mL (≈ 40.7 µM) and the MIC (Escherichia coli, E. coli 342) was 32 µg/mL (≈ 40.7 µM). The MIC (Escherichia coli, E. coli 343) was 32 µg/mL (≈ 40.7 µM), the MIC (Escherichia coli, E. coli 345) was 32 µg/mL (≈ 40.7 µM) and the MIC (Escherichia coli, E. coli 349) was 32 µg/mL (≈ 40.7 µM). For the same compound, the MIC (Escherichia coli, E. coli 351) was 32 µg/mL (≈ 40.7 µM), the MIC (Klebsiella aerogenes, E. aerogenes 235) was 32 µg/mL (≈ 40.7 µM) and the MIC (Klebsiella aerogenes, E. aerogenes 281) was 32 µg/mL (≈ 40.7 µM). It also gave an MIC (Klebsiella aerogenes, E. aerogenes 290) of 32 µg/mL (≈ 40.7 µM), an MIC (Klebsiella aerogenes, E. aerogenes 1023) of 32 µg/mL (≈ 40.7 µM) and an MIC (Klebsiella aerogenes, E. aerogenes 1030) of 32 µg/mL (≈ 40.7 µM). The MIC (Klebsiella aerogenes, E. aerogenes 1031) was 32 µg/mL (≈ 40.7 µM), the MIC (Klebsiella oxytoca, K. oxytoca 4) was 32 µg/mL (≈ 40.7 µM) and the MIC (Klebsiella oxytoca, K. oxytoca 18) was 32 µg/mL (≈ 40.7 µM). The MIC (Klebsiella oxytoca, K. oxytoca 479) was 32 µg/mL (≈ 40.7 µM).
